# Assay results reported in ChEMBL document CHEMBL3797109, “Biochemometrics for Natural Products Research: Comparison of Data Analysis Approaches and Application to Identification of Bioactive Compounds” (2016).
# How the values were obtained:
# [1] = system: Staphylococcus aureus; test: Antimicrobial activity against Staphylococcus aureus SA1199 after 24 hrs by CLSI method; assay type: functional; conditions: SA1199, 24 h
# [2] = system: Staphylococcus aureus; test: Antimicrobial activity against methicillin-resistant Staphylococcus aureus USA300 LAC AH1263 after 24 hrs by CLSI method; assay type: functional; conditions: USA300 LAC AH1263, 24 h
SMILES,MIC [1],MIC [2]
COc1ccc2cc3[n+](cc2c1OC)CCc1cc2c(cc1-3)OCO2 [BERBERINE],446 µM,446 µM
COc1cc(O)c2c(=O)oc3cc(O)cc(C)c3c2c1,275 µM,
C[C@@H]1OC(=O)/C=C/[C@@H](O)[C@H](C)OC(=O)C[C@H](C)OC(=O)/C=C/[C@H]1O,219 µM,
